Assay [1] addresses hFc-fused hLRRC4B and FAM19A5 complex formation (Homo sapiens, UniProt Q7Z5A7). The assay is described as follows: Competitive inhibition assay (IC50), plate coated with LRRC4B(453-576, TT/TT)-hFc. In kind it is binding. To be noted: Table 14; LRRC4B(453-576, TT/TT)-hFc 100 nM coat; peptide 0.03-1000 nM; read-out: IC50 (nM), Inhibition on Complex Formulation between human LRRC4B protein and recombinant FAM19A5 protein (1 ng/mL). The procedure:
The in silico analysis provided in Example 9 highlighted that certain T12 and L13 double mutants might be important in improving the binding affinity of the polypeptides of the present disclosure to the FAM19A5 protein. Therefore, the ability of both the wild-type FB-21 peptide (which is the same as the FB-20 peptide described herein except that the FB-21 peptide additionally contains an alanine at the C-terminus) and several FB-21 mutants were tested for their inhibitor effect on hFc-fused hLRRC4B and FAM19A5 complex formation. Briefly, plate was coated with 100 nM of LRRC4B(453-576, TT/TT)-hFc and then 1 ng/ml of rFAM19A5 was incubated at 37° C. in the presence of increasing concentrations of the different FB-21 peptide fragments (0.03, 0.1, 0.3, 1, 3, 10, 30, 100, 300 and 1000 nM). The LRRC4B-bound FAM19A5 levels were measured using HRP-conjugated 1-65 antibody.

The target of assay [2] is T1, FAM19A5 protein (Homo sapiens, UniProt Q7Z5A7). The assay is described as follows: ELISA binding of recombinant FAM19A5 to coated hFc-conjugated LRRC4 family ectodomains, fragments or synthetic peptides. To be noted: for binding to FAM19A5 protein (ELISA, in words): coated 100 nM/well, FAM19A5 up to 10 nM; for EC50: hFc-conjugated ectodomain coated 100 nM/well, FAM19A5 0.005-10 nM, 37° C. 1 hour. The procedure:
Next, to confirm the above co-immunoprecipitation results, an ELISA assay was used to measure the binding of the FAM19A5 protein to either the full-length ectodomain of members of LRRC4 protein family or various LRRC4B ectodomain protein fragments. Specifically, an ELISA plate was coated with one of the following LRRC4B ectodomain protein, which was conjugated to human Fc (100 nM/well): (1) full-length ectodomain of LRRC4 protein (amino acid residues 39-527 of SEQ ID NO: 1) (SEQ ID NO: 4); (2) full-length ectodomain of LRRC4B protein (amino acids 36-576 of SEQ ID NO: 2; i.e., construct #7 in Table 6) (SEQ ID NO: 5); (3) full-length ectodomain of LRRC4C protein (amino acids 45-527 of SEQ ID NO: 3) (SEQ ID NO: 6); (4) LRRC4B ectodomain fragment (amino acids 453-576 of SEQ ID NO: 2; i.e., construct #11 in Table 6) (SEQ ID NO: 7); (5) LRRC4B ectodomain fragment (amino acids 484-576 of SEQ ID NO: 2; i.e., construct #12 in Table 6) (SEQ ID NO: 8); (6) LRRC4B ectodomain fragment (amino acids 482-576 of SEQ ID NO: 2) (SEQ ID NO: 9); (7) LRRC4B ectodomain fragment (amino acids 482-497 of SEQ ID NO: 2) (SEQ ID NO: 10); and (8) LRRC4B ectodomain fragment (amino acids 498-576 of SEQ ID NO: 2; i.e., construct #13 in Table 6) (SEQ ID NO: 11). Then, recombinant FAM19A5 proteins (0.005, 0.01, 0.025, 0.05, 0.1, 0.25, 0.5, 1, 2.5, 5, and 10 nM) were added to the relevant wells, and the plates were incubated at 37° C. for 1 hour. Afterwards, the amount of LRRC4B-bound FAM19A5 protein was detected using HRP-conjugated anti-FAM19A5 (1-65) antibody.
As further confirmation, three synthetic polypeptides comprising amino acids 484-497 of SEQ ID NO: 2 (i.e., YTYFTTVTVETLET; SEQ ID NO: 65) were constructed: (1) FB-16 (GYTYFTTVTVETLETQ; SEQ ID NO: 17), (2) FB-20 ([…]; SEQ ID NO: 18), and (3) FB-28 ([…]; SEQ ID NO: 19). The peptides differed in their total length. The ability of these polypeptides to bind to recombinant FAM19A5 protein was assessed using an ELISA assay as described above.
Background: An ELISA detects its analyte on a solid surface through an enzyme-linked reagent.

Assay [3] deals with mouse primary cortical neurons. The assay is described as follows: Neurite growth of mouse primary cortical neurons in vitro. It is filed as cell-based. To be noted: treated days 1 and 2, assessed day 3, anti-beta-tubulin III; LRRC4B fragment 0.006 to 60 nM; versus control. The procedure:
Next, primary cortical neurons (day 1 postnatal) were cultured in vitro with varying concentrations (0.006 to 60 nM) of the LRRC4B (453-576) protein fragment (i.e., amino acid residues 453-576 of SEQ ID NO: 2; SEQ ID NO: 7), and then at day 3 post-initial culture, the effect on neurite growth was assessed by immunostaining the cells with anti-beta-tubulin III antibody. Cells cultured with DMSO (“Veh”) were used as control.
Mouse hippocampal neurons were treated with LRRC4B peptides at 1 and 2 DIV to determine neurite growth. It was measured by using 3 different parameters, which are total neurites length, number of primary and secondary neurites. After the neurons were stained with beta-tubulin III at 3 DIV, neurites length and branch points were measured using Fiji (Image J, NIH, Bethesda). Individual neurons were selected by hand and these parameters were counted using the Simple neurite tracer plugin. Mouse spinal motor neurons sampled at postnatal day 1 were treated with 10 nM of NS101 and LRRC4B-peptides (dFB-dWY-JM31 and dFB-DY-JM31) at 1 and 2 DIV and immunostained with Tau-5 antibody at 3 DIV. Total neurite length and number of somas in images were measured by Neurphology Image J plugin.

For assay [4], the target named is T1, FAM19A5 protein. The assay is described as follows: Co-immunoprecipitation of FLAG-tagged LRRC4 family deletion constructs/fragments with recombinant FAM19A5 in HEK293 cells. It is filed as binding. To be noted: HEK293 cells expressing FLAG-tagged construct, recombinant FAM19A5 1 μM 30 minutes; IP anti-FLAG, blot anti-FAM19A5 (3-2). As to the method: To understand the interaction between FAM19A5 and members of the LRRC4 protein family, HEK293 cells were modified to express a FLAG-tagged member of the LRRC4 protein family, i.e., LRRC4C protein, LRRC4 protein, or LRRC4B protein. Then, the HEK293 cells or primary cortical neurons were treated with recombinant FAM19A5 protein (1 μM) for 30 minutes, and the binding between FAM19A5 protein and the different members of the LRRC4 protein family was assessed using both co-immunoprecipitation and immunofluorescence assays.
For the co-immunoprecipitation assay, cell lysates from the different FAM19A5-treated HEK293 cells were collected and immunoprecipitated with an anti-FLAG antibody, anti-FAM19A5 (1-65) antibody, or a human IgG antibody (control). Immunoprecipitated proteins were immunoblotted with anti-FLAG and anti-FAM19A5 (3-2) antibodies. For the immunofluorescence assay, the HEK293 cells treated with the recombinant FAM19A5 protein were immunostained with anti-FAM19A5 (3-2) (to detect FAM19A5 protein expression) and anti-FLAG antibodies (to detect member of the LRRC4 protein family). The primary cortical neurons treated with the recombinant FAM19A5 protein were immunostained with anti-FAM19A5 (3-2) and anti-LRRC4B antibodies. The nuclei were stained with Hoechst33342 (blue).
To determine the specific motif or domain of the LRRC4B protein that is responsible for the binding to a FAM19A5 protein, various FLAG-tagged LRRC4B deletion constructs were generated (see Table 6 below). HEK293 cells were transfected with the different deletion constructs and then treated with recombinant FAM19A5 protein as described in Example 1. Then, the cell lysates from the different HEK293 cells were immunoprecipitated with the anti-FLAG antibody. The immunoprecipitated proteins were immunoblotted with anti-FLAG and anti-FAM19A5 (3-2) antibodies.
As described in Example 2, all members of the LRRC4 protein family were capable of binding to FAM19A5 protein to varying degrees. Therefore, to compare the bindings domains, the amino acid sequences of the LRRC4B, LRRC4, and LRRC4C proteins were aligned. […] Therefore, to assess whether the corresponding positions of LRRC4 and LRRC4C were important in the binding of these proteins to FAM19A5 protein, cDNAs encoding either (i) LRRC4C protein fragment (amino acids 354-527 of SEQ ID NO: 3; SEQ ID NO: 66) or (ii) LRRC4 protein fragment (amino acids 353-527 of SEQ ID NO: 1; SEQ ID NO: 67) were constructed (see Table 7). HEK293 cells were transfected to express either of the protein fragments and then treated with recombinant FAM19A5 protein as described in Example 1. Then, the cell lysates from the different HEK293 cells were immunoprecipitated with the anti-FLAG antibody. The immunoprecipitated proteins were immunoblotted with anti-FLAG and anti-FAM19A5 (3-2) antibodies.

Ends that are not written are not given here.

T1 sequence (Q7Z5A7 44-132): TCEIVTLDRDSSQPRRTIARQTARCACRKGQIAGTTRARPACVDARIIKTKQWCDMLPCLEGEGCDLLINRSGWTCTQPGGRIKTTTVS

In the case of GYTYFTTVTVEHFETQPGEEA [FB-21 (H12F13)], the IC50 in assay [1] was 9.8 nM.
Same read-out and setting: the same measure for GYTYFTTVTVEQRETQPGEEA [FB-21 (Q12R13)]: 39.9 nM.
Turning to GYTYFTTVTVETLETQPGEKEPPGPTTD [FB-28], the “binding to FAM19A5 protein (ELISA, in words)” value in assay [2] is on record as “able to bind to recombinant FAM19A5 protein with high affinity”. The “neurite growth / neurite outgrowth” value in assay [3] is “Increased neurite outgrowth”.
Turning to GYTYFTTVTVEIFETQPGEEA [FB-21 (I12F13)], the IC50 in assay [1] was 9.9 nM.
For GYTYFTTVTVEPYETQPGEEA [FB-21 (P12Y13)], the IC50 in assay [1] was found to be 39 nM.
Regarding GYTYFTTVTVEMRETQPGEEA [FB-21 (M12R13)], the IC50 in assay [1] worked out at 47.9 nM.

B1: LRRC4 full-length ectodomain: full-length ectodomain of LRRC4 protein, amino acid residues 39-527 of SEQ ID NO: 1, conjugated to human Fc (protein)
chain: ASAGPQNCPSVCSCSNQFSKVVCTRRGLSEVPQGIPSNTRYLNLMENNIQMIQADTFRHLHHLEVLQLGRNSIRQIEVGAFNGLASLNTLELFDNWLTVIPSGAFEYLSKLRELWLRNNPIESIPSYAFNRVPSLMRLDLGELKKLEYISEGAFEGLFNLKYLNLGMCNIKDMPNLTPLVGLEELEMSGNHFPEIRPGSFHGLSSLKKLWVMNSQVSLIERNAFDGLASLVELNLAHNNLSSLPHDLFTPLRYLVELHLHHNPWNCDCDILWLAWWLREYIPTNSTCCGRCHAPMHMRGRYLVEVDQASFQCSAPFIMDAPRDLNISEGRMAELKCRTPPMSSVKWLLPNGTVLSHASRHPRISVLNDGTLNFSHVLLSDTGVYTCMVTNVAGNSNASAYLNVSTAELNTSNYSFFTTVTVETTEISPEDTTRKYKPVPTTSTGYQPAYTTSTTVLIQTTRVPKQVAVPATDTTDKMQTSLDEVMKTTK
modifications: conjugated to human Fc
The EC50 is the concentration at which the effect is half-maximal. In the case of B1, in assay [2], the EC50 worked out at 0.48 nM.

B2: full-length LRRC4C protein: full-length ectodomain of LRRC4C protein, amino acids 45-527 of SEQ ID NO: 3, conjugated to human Fc (protein)
chain: QTCPSVCSCSNQFSKVICVRKNLREVPDGISTNTRLLNLHENQIQIIKVNSFKHLRHLEILQLSRNHIRTIEIGAFNGLANLNTLELFDNRLTTIPNGAFVYLSKLKELWLRNNPIESIPSYAFNRIPSLRRLDLGELKRLSYISEGAFEGLSNLRYLNLAMCNLREIPNLTPLIKLDELDLSGNHLSAIRPGSFQGLMHLQKLWMIQSQIQVIERNAFDNLQSLVEINLAHNNLTLLPHDLFTPLHHLERIHLHHNPWNCNCDILWLSWWIKDMAPSNTACCARCNTPPNLKGRYIGELDQNYFTCYAPVIVEPPADLNVTEGMAAELKCRASTSLTSVSWITPNGTVMTHGAYKVRIAVLSDGTLNFTNVTVQDTGMYTCMVSNSVGNTTASATLNVTAATTTPFSYFSTVTVETMEPSQDEARTTDNNVGPTPVVDWETTNVTTSLTPQSTRSTEKTFTIPVTDINSGIPGIDEVMKTTK
modifications: conjugated to human Fc
Consider B2, for which the “binding to FAM19A5 protein (ELISA, in words)” value in assay [2] is on record as “No saturation in binding was observed”.

B3: LRRC4B (36-576): full-length ectodomain of LRRC4B protein, amino acids 36-576 of SEQ ID NO: 2; FLAG-tagged or conjugated to human Fc (protein)
chain: AGGGGVAVTSAAGGGSPPATSCPVACSCSNQASRVICTRRDLAEVPASIPVNTRYLNLQENGIQVIRTDTFKHLRHLEILQLSKNLVRKIEVGAFNGLPSLNTLELFDNRLTTVPTQAFEYLSKLRELWLRNNPIESIPSYAFNRVPSLRRLDLGELKRLEYISEAAFEGLVNLRYLNLGMCNLKDIPNLTALVRLEELELSGNRLDLIRPGSFQGLTSLRKLWLMHAQVATIERNAFDDLKSLEELNLSHNNLMSLPHDLFTPLHRLERVHLNHNPWHCNCDVLWLSWWLKETVPSNTTCCARCHAPAGLKGRYIGELDQSHFTCYAPVIVEPPTDLNVTEGMAAELKCRTGTSMTSVNWLTPNGTLMTHGSYRVRISVLHDGTLNFTNVTVQDTGQYTCMVTNSAGNTTASATLNVSAVDPVAAGGTGSGGGGPGGSGGVGGGSGGYTYFTTVTVETLETQPGEEALQPRGTEKEPPGPTTDGVWGGGRPGDAAGPASSSTTAPAPRSSRPTEKAFTVPITDVTENALKDLDDVMKTTK
modifications: FLAG tag or human Fc
Turning to B3, the “binding to FAM19A5 protein (co-immunoprecipitation)” value in assay [4] is recorded as “able to bind to the FAM19A5 protein with varying degree”. The EC50 in assay [2] was 0.64 nM.

The values are drawn from US20240238445A1, “INHIBITORS AND USES THEREOF” (NEURACLE SCIENCE CO., LTD., priority 2021, published 2024).
